# Data from US20210038607A1, “OXADIAZOLYLTHIOPHENE DERIVATIVES USEFUL AS HISTONE DEACETYLASE INHIBITORS” (Karus Therapeutics Limited, priority 2018, published 2021).
# How the values were obtained:
# [1] = target: T1, Complex of human HDAC3 and human NCOR2 (Homo sapiens, UniProt O15379); test: HDAC3 biochemical assay, AMC-labeled peptide substrate; conditions: read-out: HDAC Isoform IC50 (nM) 3
# T1 construct: full length with C-terminal His tag, MW=49.7 kDa; His (C); host or cells: baculovirus expression system (co-expressed)
# T1 sequence (O15379 whole entry, canonical isoform): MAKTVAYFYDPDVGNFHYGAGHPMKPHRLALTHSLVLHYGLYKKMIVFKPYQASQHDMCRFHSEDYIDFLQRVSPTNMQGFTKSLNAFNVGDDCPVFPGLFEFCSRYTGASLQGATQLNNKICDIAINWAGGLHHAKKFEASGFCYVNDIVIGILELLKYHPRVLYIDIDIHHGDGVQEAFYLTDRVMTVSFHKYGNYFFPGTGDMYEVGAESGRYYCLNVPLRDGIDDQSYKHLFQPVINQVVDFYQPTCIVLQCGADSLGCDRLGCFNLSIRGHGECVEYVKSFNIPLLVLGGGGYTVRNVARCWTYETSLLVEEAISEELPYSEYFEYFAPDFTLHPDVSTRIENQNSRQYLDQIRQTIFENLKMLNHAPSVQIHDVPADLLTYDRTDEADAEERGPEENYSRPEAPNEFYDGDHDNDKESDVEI
# T1 sequence (Q9Y618 395-489 partner limits assumed): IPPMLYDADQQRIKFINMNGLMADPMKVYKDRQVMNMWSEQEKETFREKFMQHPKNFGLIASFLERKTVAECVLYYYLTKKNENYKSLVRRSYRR
# Description: (§1) Activity against all zinc-dependent HDACs 1 to 11 was assessed by using an acetylated AMC-labeled peptide substrate. The substrate RHKK(Ac)AMC was used for HDAC1, HDAC2, HDAC3, HDAC6 and HDAC10; the substrate used for HDAC8 was RHK(Ac)K(Ac)AMC. Activity against the class IIa HDACs (HDAC4, 5, 7, 9) and HDAC11 was determined using a class IIa-specific substrate, BOC-Lys(trifluoroacetyl)-AMC (“Trifluoroacetyl Lysine”; see Lahm et al, 2007, PNAS, 104, 17335-17340). All assays were based on the AMC-labeled substrate and developer combination.
# (§2) The protocol involved a two-step reaction: first, the substrate with the acetylated lysine side chain is incubated with a sample containing HDAC activity, to produce the deacetylated products, which are then digested in the second step by the addition of developer to produce the fluorescent signal proportional to the amount of deacetylated substrates.
# Complex of human HDAC3 (GenBank Accession No. NM_003883), full length with C-terminal His tag, MW=49.7 kDa, and human NCOR2 (amino acid 395-489) (GenBank Accession No. NM_006312), N-terminal GST tag, MW=37.6 kDa, co-expressed in baculovirus expression system.
# (§3) Assay Buffer: 50 mM Tris-HCl, pH8.0, 137 mM NaCl, 2.7 mM KCl, 1 mM MgC2. Before use, 1 mg/mL BSA and DMSO are added.
# HDAC3: 0.1 ng/ul HDAC3 and 50 μM HDAC substrate are in the reaction buffer with 1% DMSO final. Incubate for 1 hour at 30° C.
# (§4) Stage 1: Deacetylation of substrate by incubation of HDAC enzymes with compounds
# (§5) Stage 2: Development by addition of Developer to digest the deacetylated substrate, and generate the fluorescent colour; Detection: 360/460 Ex/Em
# [2] = target: T2, Human HDAC8 (Homo sapiens, UniProt Q9BY41); test: HDAC8 biochemical assay, AMC-labeled peptide substrate; conditions: read-out: HDAC Isoform IC50 (nM) 8
# T2 construct: full length with C-terminal His tag, MW=42.6 kDa; His (C); host or cells: baculovirus expression system
# T2 sequence (Q9BY41 1-377): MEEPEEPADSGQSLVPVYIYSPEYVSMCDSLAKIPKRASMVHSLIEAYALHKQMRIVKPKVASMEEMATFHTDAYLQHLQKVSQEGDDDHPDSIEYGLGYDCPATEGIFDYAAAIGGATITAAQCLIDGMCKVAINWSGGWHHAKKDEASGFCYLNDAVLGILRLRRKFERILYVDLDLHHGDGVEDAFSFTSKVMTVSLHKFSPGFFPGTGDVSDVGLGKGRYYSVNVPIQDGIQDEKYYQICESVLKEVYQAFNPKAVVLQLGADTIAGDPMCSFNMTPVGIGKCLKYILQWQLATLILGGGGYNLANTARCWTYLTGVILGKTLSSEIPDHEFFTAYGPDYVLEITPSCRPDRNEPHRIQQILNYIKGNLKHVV
# Description: as §1, §2
# Human HDAC8 (GenBankAccession No. NM_018486), full length with C-terminal His tag, MW=42.6 kDa, expressed in a baculovirus expression system.
# as §3
# HDAC8: 1 ng/ul HDAC8 and 100 µM HDAC8 substrate are in the reaction buffer with 1% DMSO final. Incubate for 2 hours at 30° C.
# as §4, §5
# [3] = target: T3, Recombinant human HDAC6 (Homo sapiens, UniProt Q9UBN7); test: HDAC6 biochemical assay, AMC-labeled peptide substrate; conditions: HDAC6; read-out: HDAC Isoform IC50 (nM) 6
# T3 construct: full length, MW=159 kDa; GST (N); host or cells: Sf9 insect cells (baculovirus)
# T3 sequence (Q9UBN7 1-1215): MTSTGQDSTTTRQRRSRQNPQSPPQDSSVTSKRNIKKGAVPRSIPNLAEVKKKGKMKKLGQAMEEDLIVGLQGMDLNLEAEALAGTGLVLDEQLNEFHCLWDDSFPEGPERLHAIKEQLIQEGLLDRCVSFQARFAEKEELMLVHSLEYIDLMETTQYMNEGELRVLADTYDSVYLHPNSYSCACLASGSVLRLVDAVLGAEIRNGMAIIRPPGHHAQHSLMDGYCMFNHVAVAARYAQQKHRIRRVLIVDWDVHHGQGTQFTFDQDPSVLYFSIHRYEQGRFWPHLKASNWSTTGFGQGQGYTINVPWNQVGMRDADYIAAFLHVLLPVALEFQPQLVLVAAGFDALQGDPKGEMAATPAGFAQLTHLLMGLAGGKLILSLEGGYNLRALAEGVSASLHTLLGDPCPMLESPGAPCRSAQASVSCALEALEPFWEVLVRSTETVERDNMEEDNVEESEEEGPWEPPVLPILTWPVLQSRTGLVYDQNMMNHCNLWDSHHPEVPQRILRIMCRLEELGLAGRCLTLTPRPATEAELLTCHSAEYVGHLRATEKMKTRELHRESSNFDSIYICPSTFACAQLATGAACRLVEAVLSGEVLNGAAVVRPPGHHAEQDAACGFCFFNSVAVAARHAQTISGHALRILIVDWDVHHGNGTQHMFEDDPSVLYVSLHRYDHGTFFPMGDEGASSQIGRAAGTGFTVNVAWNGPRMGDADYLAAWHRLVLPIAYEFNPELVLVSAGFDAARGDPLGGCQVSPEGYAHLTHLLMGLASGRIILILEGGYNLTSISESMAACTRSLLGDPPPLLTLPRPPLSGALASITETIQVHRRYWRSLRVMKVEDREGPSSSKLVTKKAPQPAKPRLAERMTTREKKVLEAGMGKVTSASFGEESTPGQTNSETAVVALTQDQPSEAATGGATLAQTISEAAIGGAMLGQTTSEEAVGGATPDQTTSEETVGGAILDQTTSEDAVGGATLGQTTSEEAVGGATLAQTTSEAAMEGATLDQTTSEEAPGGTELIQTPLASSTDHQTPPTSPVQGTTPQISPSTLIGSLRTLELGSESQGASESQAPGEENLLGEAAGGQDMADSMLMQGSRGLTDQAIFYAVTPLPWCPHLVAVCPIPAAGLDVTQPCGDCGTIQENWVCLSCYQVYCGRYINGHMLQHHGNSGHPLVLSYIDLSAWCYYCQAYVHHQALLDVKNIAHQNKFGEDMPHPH
# Summary of the method: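 Two-step fluorogenic read-out: enzyme deacetylates 50 μM RHKK(Ac)AMC for 1 h at 30° C in pH 8.0 Tris buffer with BSA and 1% DMSO, then developer cleavage gives signal at Ex 360/Em 460. Enzyme: 0.3 ng/ul recombinant full-length human HDAC6, GST-tagged, Sf9-expressed.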
structure (smiles),measurement,setting,value
"O=C(c1cnnc(N(Cc2ccc(-c3noc(C(F)(F)F)n3)s2)c2cnccn2)c1)N1CC[S+]([O-])CC1 [Example FU, 4-{6-[(Pyrazin-2-yl)({5-[5-(trifluoromethyl)-1,2,4-oxadiazol-3-yl]thiophen-2-yl}methyl)amino]pyridazine-4-carbonyl}-1lambda4-thiomorpholin-1-one]",IC50,[1],> 10000 nM
same,IC50,[2],≤ 10000 nM
same,IC50,[3],≤ 500 nM
"FC(F)(F)c1nc(-c2ccc(CN(c3cnccn3)c3cnc(N4CCOCC4)cn3)s2)no1 [Example BM, 5-(Morpholin-4-yl)-N-(pyrazin-2-yl)-N-({5-[5-(trifluoromethyl)-1,2,4-oxadiazol-3-yl]thiophen-2-yl}methyl)pyrazin-2-amine]",IC50,[1],≤ 10000 nM
same,IC50,[2],≤ 10000 nM
same,IC50,[3],≤ 10000 nM
"[O-][S+]1CCN(Cc2ccc(N(Cc3ccc(-c4noc(C(F)(F)F)n4)s3)c3cnccn3)nn2)CC1 [Example FO, 4-({6-[(Pyrazin-2-yl)({5-[5-(trifluoromethyl)-1,2,4-oxadiazol-3-yl]thiophen-2-yl}methyl)amino]pyridazin-3-yl}methyl)-1lambda4-thiomorpholin-1-one]",IC50,[1],> 10000 nM
same,IC50,[2],≤ 10000 nM
same,IC50,[3],≤ 500 nM
"FC(F)(F)c1nc(-c2ccc(CN(c3cnccn3)c3cc(N4CCOCC4)cnn3)s2)no1 [Example FP, 5-(Morpholin-4-yl)-N-(pyrazin-2-yl)-N-({5-[5-(trifluoromethyl)-1,2,4-oxadiazol-3-yl]thiophen-2-yl}methyl)pyridazin-3-amine]",IC50,[1],> 10000 nM
same,IC50,[2],≤ 10000 nM
same,IC50,[3],≤ 500 nM
"O=C(c1cnnc(N(Cc2ccc(-c3noc(C(F)(F)F)n3)s2)c2cnccn2)c1)N1CC(O)(C(F)(F)F)C1 [Example GD, 1-{6-[(Pyrazin-2-yl)({5-[5-(trifluoromethyl)-1,2,4-oxadiazol-3-yl]thiophen-2-yl}methyl)amino]pyridazine-4-carbonyl}-3-(trifluoromethyl)azetidin-3-ol]",IC50,[1],≤ 10000 nM
same,IC50,[2],≤ 10000 nM
same,IC50,[3],≤ 500 nM
"O=C(c1ccc(N(Cc2ccc(-c3noc(C(F)(F)F)n3)s2)c2cnccn2)nn1)N1CCC1 [Example FF, 6-(Azetidine-1-carbonyl)-N-(pyrazin-2-yl)-N-({5-[5-(trifluoromethyl)-1,2,4-oxadiazol-3-yl]thiophen-2-yl}methyl)pyridazin-3-amine]",IC50,[1],≤ 10000 nM
same,IC50,[2],≤ 10000 nM
same,IC50,[3],≤ 500 nM
"Cc1cncc(N(Cc2ccc(-c3noc(C(F)(F)F)n3)s2)c2cnccn2)n1 [Example BP, 6-Methyl-N-(pyrazin-2-yl)-N-({5-[5-(trifluoromethyl)-1,2,4-oxadiazol-3-yl]thiophen-2-yl}methyl)pyrazin-2-amine]",IC50,[1],> 10000 nM
same,IC50,[2],≤ 10000 nM
same,IC50,[3],≤ 500 nM
"COc1cncc(N(Cc2ccc(-c3noc(C(F)(F)F)n3)s2)c2cnccn2)n1 [Example BQ, 6-Methoxy-N-(pyrazin-2-yl)-N-({5-[5-(trifluoromethyl)-1,2,4-oxadiazol-3-yl]thiophen-2-yl}methyl)pyrazin-2-amine]",IC50,[1],> 10000 nM
same,IC50,[2],≤ 10000 nM
same,IC50,[3],≤ 500 nM
"N#Cc1cnnc(N(Cc2ccc(-c3noc(C(F)(F)F)n3)s2)c2cnccn2)c1 [Example EE, 6-[(Pyrazin-2-yl)({5-[5-(trifluoromethyl)-1,2,4-oxadiazol-3-yl]thiophen-2-yl}methyl)amino]pyridazine-4-carbonitrile]",IC50,[1],> 10000 nM
same,IC50,[2],≤ 10000 nM
same,IC50,[3],≤ 500 nM
"O=C(c1cnnc(N(Cc2ccc(-c3noc(C(F)(F)F)n3)s2)c2cnccn2)c1)N1C[C@H]2C[C@@H]1CO2 [Example FW, 5-[(1R,4R)-2-Oxa-5-azabicyclo[2.2.1]heptane-5-carbonyl]-N-(pyrazin-2-yl)-N-({5-[5-(trifluoromethyl)-1,2,4-oxadiazol-3-yl]thiophen-2-yl}methyl)pyridazin-3-amine]",IC50,[1],≤ 10000 nM
same,IC50,[2],≤ 10000 nM
same,IC50,[3],≤ 500 nM
"O=C(c1ccc(N(Cc2ccc(-c3noc(C(F)(F)F)n3)s2)c2cnccn2)nn1)N1CCC2(COC2)C1 [Example FJ, 6-{2-Oxa-6-azaspiro[3.4]octane-6-carbonyl}-N-(pyrazin-2-yl)-N-({5-[5-(trifluoromethyl)-1,2,4-oxadiazol-3-yl]thiophen-2-yl}methyl)pyridazin-3-amine]",IC50,[1],≤ 10000 nM
same,IC50,[2],≤ 10000 nM
same,IC50,[3],≤ 500 nM
"NC(=O)c1nccnc1N(Cc1ccc(-c2noc(C(F)(F)F)n2)s1)c1cnccn1 [Example GO, 3-[(Pyrazin-2-yl)({5-[5-(trifluoromethyl)-1,2,4-oxadiazol-3-yl]thiophen-2-yl}methyl)amino]pyrazine-2-carboxamide]",IC50,[1],> 10000 nM
same,IC50,[2],≤ 10000 nM
same,IC50,[3],≤ 1000 nM
"Nc1cnnc(N(Cc2ccc(-c3noc(C(F)(F)F)n3)s2)c2cnccn2)c1 [Example FL, N3-(Pyrazin-2-yl)-N3-({5-[5-(trifluoromethyl)-1,2,4-oxadiazol-3-yl]thiophen-2-yl}methyl)pyridazine-3,5-diamine]",IC50,[1],> 10000 nM
same,IC50,[2],≤ 10000 nM
same,IC50,[3],≤ 500 nM
"Cc1cnnc(N(Cc2ccc(-c3noc(C(F)(F)F)n3)s2)c2cnccn2)c1 [Example GN, 5-Methyl-N-(pyrazin-2-yl)-N-({5-[5-(trifluoromethyl)-1,2,4-oxadiazol-3-yl]thiophen-2-yl}methyl)pyridazin-3-amine]",IC50,[1],> 10000 nM
same,IC50,[2],≤ 10000 nM
same,IC50,[3],≤ 500 nM
"FC(F)(F)c1cncc(N(Cc2ccc(-c3noc(C(F)(F)F)n3)s2)c2cnccn2)n1 [Example BR, N-(Pyrazin-2-yl)-6-(trifluoromethyl)-N-({5-[5-(trifluoromethyl)-1,2,4-oxadiazol-3-yl]thiophen-2-yl}methyl)pyrazin-2-amine]",IC50,[1],> 10000 nM
same,IC50,[2],≤ 10000 nM
same,IC50,[3],≤ 10000 nM
